Results as given in patent US7846925B2, “Azolidinone-vinyl fused-benzene derivatives” (Merck Serono SA, priority 2002, dated 2010).
pIC50: −log10 of the molar value.

Tests used:
[1] = test system: C5a-mediated AKT phosphorylation; assay: Cell based ELISA: Akt/PKB phosphorylation in Raw 264-7 macrophages after stimulation with C5a; conditions: Mus musculus, RAW264.7, compound at 1 μM, 50 nM C5a, read-out: percentage of inhibition of C5a-mediated AKT phosphorylation
Protocol: b) Cell Based ELISA to Monitor PI3K Inhibition:
Measurement of Akt/PKB phosphorylation in macrophages after stimulation with C5a: Raw 264: Raw 264-7 macrophages (cultured in DMEM-F12 medium containing 10% Fetal Calf serum and antibiotics) are plated at 20'000 cells/well in a 96 MTP 24 h before cell stimulation. Previous to the stimulation with 50 nM of Complement 5a (C5a; which is a well known chemokine which stimulates the used cells) during 5 minutes, Cells are serum starved for 2 h, and pretreated with inhibitors for 20 minutes. After stimulation cells are fixed in 4% formaldehyde for 20 minutes and washed 3 times in PBS containing 1% Triton X-100 (PBS/Triton). Endogenous peroxidase is blocked by a 20 minutes incubation in 0.6% H2O2 and 0.1% Sodium Azide in PBS/Triton and washed 3 times in PBS/Triton. Cells are then blocked by 60 minutes incubation with 10% fetal calf serum in PBS/Triton. Next, phosphorylated Atk/PKB is detected by an overnight incubation at 4° C. with first antibody (anti phospho Serine 473 Akt 1HC, Cell Signaling) diluted 800-fold in PBS/Triton, containing 5% bovine serum albumin (BSA). After 3 washes in PBS/Triton, cells are incubated for 60 minutes with a peroxidase conjugated goat-anti-rabbit antibody (1/400 dilution in PBS/Triton, containing 5% BSA), washed 3 times in PBS/Triton, and 2 times in PBS and further incubated in 100 μl of substrate reagent solution (R&D) for 20 minutes.
The reaction is stopped by addition of 50 μl of 1 M H2SO4 and absorbance is read at 450 nm.
The values indicated reflect the percentage of inhibition of AKT phosphorylation as compared to basal level. Said values show a clear effect of the azolidinone-vinyl fused-benzene compounds on the activation of AKT phosphorylation in macrophages.

[2] = target: Human recombinant GST-PI3Kγ (Homo sapiens, UniProt P48736); assay: High Throughput PI3K Lipid Kinase Assay (scintillation proximity assay); type: biochemical
Protocol: a) High Throughput PI3K Lipid Kinase Assay (Binding Assay):
The assay combines the scintillation proximity assay technology (SPA, Amersham) with the capacity of neomycin (a polycationic antibiotic) to bind phospholipids with high affinity and specificity. The Scintillation Proximity Assay is based on the properties of weakly emitting isotopes (such as ^3H, ^125I, ^33P). Coating SPA beads with neomycin allows the detection of phosphorylated lipid substrates after incubation with recombinant PI3K and radioactive ATP in the same well, by capturing the radioactive phospholipids to the SPA beads through their specific binding to neomycin.
To a 384 wells MTP containing 5 μl of the test compound of formula (I) (solubilized in 6% DMSO; to yield a concentration of 100, 30, 10, 3, 1, 0.3, 0.1, 0.03, 0.01, 0.001 μM of the test compound), the following assay components are added. 1) 5 μl (58 ng) of Human recombinant GST-PI3Kγ (in Hepes 40 mM, pH 7.4, DTT 1 mM and ethyleneglycol 5%) 2) 10 μl of lipid micelles and 3) 10 μl of Kinase buffer ([^33P]γATP 45 μM/60 nCi, MgCl2 30 mM, DTT 1 mM, β-Glycerophosphate 1 mM, Na3VO4 100 μM, Na Cholate 0.3%, in Hepes 40 mM, pH 7.4). After incubation at room temperature for 180 minutes, with gentle agitation, the reaction is stopped by addition of 60 μl of a solution containing 100 μg of neomycin-coated PVT SPA beads in PBS containing ATP 10 mM and EDTA 5 mM. The assay is further incubated at room temperature for 60 minutes with gentle agitation to allow binding of phospholipids to neomycin-SPA beads. After precipitation of the neomycin-coated PVT SPA beads for 5 minutes at 1500×g, radioactive PtdIns(3)P is quantified by scintillation counting in a Wallac MicroBeta™ plate counter.
The values indicated in respect of PI3Kγ refer to the IC50 (μM), i.e. the amount necessary to achieve 50% inhibition of said target. Said values show a considerable potency of the azolidinone-vinyl fused-benzene compounds with regard to PI3Kγ.

[3] = in vivo; cited from earlier work
[4] = test system: Class I PI3-kinases; conditions: read-out: IC50 against each of these PI3-kinases; cited from earlier work
[5] = test system: neutrophil; conditions: cited from earlier work
[6] = test system: phospholipases; conditions: cited from earlier work
[7] = target: CK2 protein kinase (Homo sapiens, UniProt P68400); conditions: cited from earlier work
CK2 protein kinase, sequence (P68400 whole entry): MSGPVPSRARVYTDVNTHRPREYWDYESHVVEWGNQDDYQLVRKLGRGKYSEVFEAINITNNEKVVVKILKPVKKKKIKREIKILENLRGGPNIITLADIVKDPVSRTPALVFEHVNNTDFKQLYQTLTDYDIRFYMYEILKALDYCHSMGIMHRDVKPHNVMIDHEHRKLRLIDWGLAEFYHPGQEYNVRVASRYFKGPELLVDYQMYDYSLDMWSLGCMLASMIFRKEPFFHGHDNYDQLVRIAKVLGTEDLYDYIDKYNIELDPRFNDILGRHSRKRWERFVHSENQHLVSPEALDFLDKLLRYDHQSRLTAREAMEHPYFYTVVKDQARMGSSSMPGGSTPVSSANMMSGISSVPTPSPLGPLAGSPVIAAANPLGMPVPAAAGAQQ

Human recombinant GST-PI3Kγ, sequence (P48736 whole entry): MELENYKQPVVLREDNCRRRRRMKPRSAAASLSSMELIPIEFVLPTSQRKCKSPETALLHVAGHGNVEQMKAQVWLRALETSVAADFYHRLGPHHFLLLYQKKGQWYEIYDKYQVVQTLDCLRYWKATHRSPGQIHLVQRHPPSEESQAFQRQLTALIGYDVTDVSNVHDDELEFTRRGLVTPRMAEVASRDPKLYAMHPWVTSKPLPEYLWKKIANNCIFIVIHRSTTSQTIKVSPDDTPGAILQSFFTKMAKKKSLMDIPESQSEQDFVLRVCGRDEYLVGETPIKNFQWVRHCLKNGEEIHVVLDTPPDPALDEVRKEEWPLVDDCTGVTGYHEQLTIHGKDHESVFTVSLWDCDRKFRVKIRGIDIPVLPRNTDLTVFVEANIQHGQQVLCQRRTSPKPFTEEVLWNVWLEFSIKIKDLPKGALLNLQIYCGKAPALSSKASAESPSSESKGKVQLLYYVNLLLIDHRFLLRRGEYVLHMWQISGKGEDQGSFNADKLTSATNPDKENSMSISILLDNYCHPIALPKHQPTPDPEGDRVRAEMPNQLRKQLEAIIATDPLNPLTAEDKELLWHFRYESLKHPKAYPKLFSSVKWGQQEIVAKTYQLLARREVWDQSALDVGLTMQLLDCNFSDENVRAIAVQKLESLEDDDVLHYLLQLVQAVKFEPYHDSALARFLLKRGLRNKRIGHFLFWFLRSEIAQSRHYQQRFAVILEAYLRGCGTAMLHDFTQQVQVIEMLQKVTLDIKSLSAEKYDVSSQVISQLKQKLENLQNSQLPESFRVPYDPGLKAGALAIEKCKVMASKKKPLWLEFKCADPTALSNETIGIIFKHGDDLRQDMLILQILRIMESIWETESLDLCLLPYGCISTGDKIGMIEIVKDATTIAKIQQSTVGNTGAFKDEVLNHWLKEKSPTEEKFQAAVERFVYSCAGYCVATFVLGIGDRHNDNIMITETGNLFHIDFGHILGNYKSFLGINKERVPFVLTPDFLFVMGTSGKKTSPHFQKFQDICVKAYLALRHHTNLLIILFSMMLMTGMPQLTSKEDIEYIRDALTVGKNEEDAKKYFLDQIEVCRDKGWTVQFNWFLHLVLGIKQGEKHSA

Row | pIC50 [2] | Compound | inhibition at 1 µM [1] [%] | further results
1 | > 6.00 | N=C1NC(=O)/C(=C/c2ccc3ncnc(N4CCCCC4)c3c2)S1 [Example 41, 2-Imino-5-(4-piperidine-quinazolin-6-ylmethylene)-thiazolidin-4-one] | – | –
2 | > 6.00 | N=C1NC(=O)/C(=C/c2ccc3nccnc3c2)S1 [Example 66, 2-Imino-5-quinoxalin-6-ylmethylene-thiazolidin-4-one] | ~100 | –
3 | > 6.00 | O=C1NC(=O)/C(=C/c2ccc3occ(/C=C/C(=O)N4CCCCC4)c3c2)S1 [Example 73, 5-[3-(3-Oxo-3-piperidin-1-yl-propenyl)-benzofuran-5-ylmethylene]-thiazolidine-2,4-dione] | – | –
4 | > 6.00 | O=C1NC(=O)/C(=C/c2ccc3nsnc3c2)S1 [Example 107, 5-Benzo[1,2,5]thiadiazol-5-ylmethylene-thiazolidine-2,4-ione] | ~100 | –

The next lines start with the molecule.

Row | Compound | pIC50 [2] | inhibition at 1 µM [1] [%] | further results
5 | O=C1NC(=O)/C(=C/c2ccc3c(c2)OCO3)S1 [Example 1, 5-(1,3-benzodioxol-5-ylmethylene)-1,3-thiazolidine-2,4-dione] | – | ~100 | –
6 | O=C1NC(=O)C(=Cc2ccc3ncnc(N4CCCCC4)c3c2)S1 [Example 19, 5-[(4-piperidin-1-ylquinazolin-6-yl)methylene]-1,3-thiazolidine-2,4-dione] | – | ~100 | –
7 | COc1ccccc1Cn1cnc2ccc(C=C3SC(=O)NC3=O)cc21 [Example 61, 5-{[1-(2-methoxybenzyl)-1H-benzimidazol-6-yl]methylene}-1,3-thiazolidine-2,4-dione] | > 6.00 | – | –
8 | O=C1NC(=O)/C(=C/c2ccc3c(c2)N(Cc2ccccc2)C(=O)CO3)S1 [Example 103, 5-(4-Benzyl-3-oxo-3,4-dihydro-2H-benzo[1,4]oxazin-6-ylmethylene)-thiazolidine-2,4-dione] | > 6.00 | – | –
9 | COC(=O)c1cc2ccc(/C=C3\SC(=O)NC3=O)cc2o1 [Example 110, 5-(2-Carboxymethyl-benzofuran-6-ylmethylene)-thiazolidine-2,4-dione] | > 6.00 | – | –
10 | CC(C)(C)c1cc(/C=C2\SC(=N)NC2=O)cc2c1OCC2(C)C [JA] | – | – | activity in a paw swelling assay [3]: inactive
11 | O=c1cc(N2CCOCC2)oc2c(-c3ccccc3)cccc12 [LY294002] | – | – | pIC50 [4]: 4.70 to 4.82; neutrophil migration [5]: block; superoxide release [5]: block; inhibitory activity on phospholipases [6]: some inhibitory activity; pIC50 [7]: 5.00 to 5.30
